This note sets out measurements from patent publication US6610846B1, “Heteroaromatic glucokinase activators” (Hoffman-La Roche Inc., priority 1999, dated 2003).

The term melting point denotes the temperature, or range, at which the solid turns liquid. Turning to `CS(=O)(=O)c1ccc(C(CC2CCCC2)C(=O)Nc2ccccn2)cc1S(C)(=O)=O` (centres unmarked), the melting point fell in the range of 107 to 110 °C.
For `O=C(Nc1nccs1)C(CC1CCCC1)c1ccc(Br)cc1` (centres unmarked) [Example 2, 2-(4-Bromo-phenyl)-3-cyclopentyl-N-thiazol-2-yl-propionamide] the value was 201 to 202 °C.
The compound `Nc1ccc(C(CC2CCCC2)C(=O)Nc2nccs2)cc1` (centres unmarked) [Example 4, 2-(4-Amino-phenyl)-3-cyclopentyl-N-thiazol-2-yl-propionamide] came in with a melting point of 102 to 107 °C.
With `Nc1cccc(C(CC2CCCC2)C(=O)Nc2nccs2)c1` (centres unmarked) [Example 5, 2-(3-Amino-phenyl)-3-cyclopentyl-N-thiazol-2-yl-propionamide] the figure was 158 to 160 °C.
For `O=C(Nc1nccs1)C(CC1CCCC1)c1cccc(Cl)c1` (centres unmarked) [Example 6, 2-(3-Chloro-phenyl)-3-cyclopentyl-N-thiazol-2-yl-propionamide] the value was 138.8 to 141.2 °C.
Compound `O=C(Nc1nccs1)C(CC1CCCC1)c1ccc(C(F)(F)F)cc1` (centres unmarked) [Example 8, 3-Cyclopentyl-N-thiazol-2-yl-2-(4-trifluoromethyl-phenyl)-propionamide] came in with a melting point of 210 to 212 °C.
With `CSc1ccc(C(CC2CCCC2)C(=O)Nc2nccs2)cc1` (centres unmarked) [Example 9, 3-Cyclopentyl-2-(4-methylsulfanyl-phenyl)-N-thiazol-2-yl-propionamide] the figure was 195 to 196 °C.
With `O=C(Nc1nccs1)C(CC1CCCC1)c1ccc(SC(F)(F)F)cc1` (centres unmarked) [Example 10, 3-Cyclopentyl-N-thiazol-2-yl-2-(4-trifluoromethylsulfanyl-phenyl)-propionamide] the figure was 58 to 60 °C; with `CS(=O)(=O)c1ccc(C(CC2CCCC2)C(=O)Nc2nccs2)cc1[N+](=O)[O-]` (centres unmarked) [Example 14, 3-Cyclopentyl-2-(4-methanesulfonyl-3-nitrophenyl)-N-thiazol-2-yl-propionamide], 121 to 124 °C; with `O=C(Nc1ncc(CO)s1)C(CC1CCCC1)c1ccc(Cl)c(Cl)c1` (centres unmarked) [Example 15, 3-Cyclopentyl-2-(3,4-dichlorophenyl)-N-(5-hydroxymethyl-thiazol-2-yl)-propionamide], 128 to 130 °C.
For `O=C(Nc1nc(CCO)cs1)C(CC1CCCC1)c1ccc(Cl)c(Cl)c1` (centres unmarked) [Example 16, 3-Cyclopentyl-2-(3,4-dichlorophenyl)-N-[4-(2-hydroxyethyl)-thiazol-2-yl]-propionamide] the value was 85 to 86 °C; for `O=C(Nc1nc(CO)cs1)C(CC1CCCC1)c1ccc(Cl)c(Cl)c1` (centres unmarked) [Example 17, 3-Cyclopentyl-2-(3,4-dichlorophenyl)-N-(4-hydroxymethyl-thiazol-2-yl)-propionamide], 88 to 90 °C.
Compound `O=C(O)Cc1csc(NC(=O)C(CC2CCCC2)c2ccc(Cl)c(Cl)c2)n1` (centres unmarked) [Example 18, {2-[3-Cyclopentyl-2-(3,4-dichlorophenyl)-propionylamino]-thiazol-4-yl}-acetic acid] displayed a melting point of 100 to 102 °C.
For `O=C(O)c1cnc(NC(=O)C(CC2CCCC2)c2ccc(Cl)c(Cl)c2)s1` (centres unmarked) [Example 19, 2-[3-Cyclopentyl-2-(3,4-dichlorophenyl)-propionylamino]-thiazole-5-carboxylic acid], the melting point was 269 to 270 °C.
For `O=C(Nc1nccs1)C(CC1CCCC1)c1ccc([N+](=O)[O-])cc1` (centres unmarked) [Example 22(A), 3-Cyclopentyl-2-(4-nitro-phenyl)-N-thiazol-2-yl-propionamide] the value was 186 to 187 °C.
Regarding `COC(=O)c1csc(NC(=O)C(CC2CCCC2)c2cccc(Cl)c2)n1` (centres unmarked) [Example 30, 2-[2-(3-Chloro-phenyl)-3-cyclopentyl-propionylamino]-thiazole-4-carboxylic acid methyl ester], the melting point was 95 to 98 °C.
`COC(=O)c1csc(NC(=O)C(CC2CCCC2)c2ccc(Cl)cc2)n1` (centres unmarked) [Example 32, 2-[2-(4-Chloro-phenyl)-3-cyclopentyl-propionylamino]-thiazole-4-carboxylic acid methyl ester]: the melting point fell in the range of 156 to 157 °C.
For `CS(=O)(=O)c1ccc(C(CC2CCCC2)C(=O)Nc2nc(CO)cs2)cc1` (centres unmarked) [Example 35, 3-Cyclopentyl-N-(4-hydroxymethyl-thiazol-2-yl)-2-(4-methanesulfonyl-phenyl)-propionamide] the value was 124 to 126 °C; for `CS(=O)(=O)c1ccc(C(CC2CCCC2)C(=O)Nc2nc(CCO)cs2)cc1` (centres unmarked) [Example 36, 3-Cyclopentyl-N-[4-(2-hydroxyethyl)-thiazol-2-yl]-2-(4-methanesulfonyl-phenyl)-propionamide], 84 to 87 °C.
With `O=C(Nc1ccccn1)C(CC1CCCC1)c1ccc([N+](=O)[O-])cc1` (centres unmarked) [Example 39(A), 3-Cyclopentyl-2-(4-nitro-phenyl)-N-pyridin-2-yl-propionamide] the figure was 152 to 154 °C; with `CSc1ccc(C(CC2CCCC2)C(=O)Nc2ccccn2)cc1` (centres unmarked) [Example 40, 3-Cyclopentyl-2-(4-methylsulfanyl-phenyl)-N-pyridin-2-yl-propionamide], 127 to 128 °C.
For `O=C(Nc1ccccn1)C(CC1CCCC1)c1ccc(SC(F)(F)F)cc1` (centres unmarked) [Example 41, 3-Cyclopentyl-N-pyridin-2-yl-2-(4-trifluoromethylsulfanyl-phenyl)-propionamide] the value was 101 to 102 °C; for `CS(=O)(=O)c1ccc(C(CC2CCCC2)C(=O)Nc2ccccn2)cc1` (centres unmarked) [Example 42, 3-Cyclopentyl-2-(4-methanesulfonyl-phenyl)-N-pyridin-2-yl-propionamide], 172 to 173 °C; for `O=C(O)c1ccc(NC(=O)C(CC2CCCC2)c2ccc(Cl)cc2)nc1` (centres unmarked) [Example 47, 6-[2-(4-Chloro-phenyl)-3-cyclopentyl-propionylamino]-nicotinic acid], 206 to 208 °C.
`CS(=O)(=O)c1ccc(C(CC2CCCC2)C(=O)Nc2ccc(C(=O)O)cn2)cc1` (centres unmarked) [Example 48, 6-[3-Cyclopentyl-2-(4-methanesulfonyl-phenyl)-propionylamino]-nicotinic acid] returned a melting point of 191 to 193 °C.
For `O=C(Nc1ccc(CO)cn1)C(CC1CCCC1)c1ccc(Cl)cc1` (centres unmarked) [Example 50, 2-(4-Chloro-phenyl)-3-cyclopentyl-N-(5-hydroxymethyl-pyridin-2-yl)-propionamide] the value was 60 to 62 °C; for `O=C(Nc1ccc(O)cn1)C(CC1CCCC1)c1ccc(Cl)c(Cl)c1` (centres unmarked) [Example 51, 3-Cyclopentyl-2-(3,4-dichloro-phenyl)-N-(5-hydroxy-pyridin-2-yl)-propionamide], 79 to 81 °C.
For `CS(=O)(=O)c1ccc(C(CC2CCCC2)C(=O)Nc2ccc(CO)cn2)cc1` (centres unmarked) [Example 52, 3-Cyclopentyl-N-(5-hydroxymethyl-pyridin-2-yl)-2-(4-methanesulfonyl-phenyl)-propionamide] the value was 74 to 77 °C.
For `Cc1ccc(NC(=O)C(CC2CCCC2)c2ccc(S(C)(=O)=O)cc2)nc1` (centres unmarked) [Example 53(A), 3-Cyclopentyl-2-(4-methanesulfonyl-phenyl)-N-(5-methyl-pyridin-2-yl)-propionamide] the value was 184 to 185 °C.
